In the supplement of paper PMC10307832:

Experiments:
Test in all cases: relative viability (nuclei count vs DMSO), 5 days (fraction); higher = more cells survive
Alpelisib + Phenformin = compound: Cc1nc(NC(=O)N2CCC[C@H]2C(N)=O)sc1-c1ccnc(C(C)(C)C(F)(F)F)c1 [Alpelisib] + N=C(N)NC(=N)NCCc1ccccc1 [Phenformin] (partner 250 µM)
Summary of the method: (§1)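 Lung cancer cell lines were pin-tool dosed in 1536-well plates on the day after seeding, with either a lone drug or a fixed anchor-drug dose plus five library-drug doses (not always all listed) in √10 steps. Nuclei were counted on 4× images after 5 days. Relative viability is the ratio of treated-well to vehicle-well nuclei counts, with each value a median of duplicate plates.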

OSI-027 + Linsitinib = compound: COc1cccc2cc(-c3nc([C@H]4CC[C@H](C(=O)O)CC4)n4ncnc(N)c34)[nH]c12 [OSI-027] + C[C@]1(O)C[C@@H](c2nc(-c3ccc4ccc(-c5ccccc5)nc4c3)c3c(N)nccn32)C1 [Linsitinib] (partner 1 µM)
Summary of the method: as §1

Vemurafenib + Linsitinib = compound: CCCS(=O)(=O)Nc1ccc(F)c(C(=O)c2c[nH]c3ncc(-c4ccc(Cl)cc4)cc23)c1F [Vemurafenib] + C[C@]1(O)C[C@@H](c2nc(-c3ccc4ccc(-c5ccccc5)nc4c3)c3c(N)nccn32)C1 [Linsitinib] (partner 1 µM)
Summary of the method: as §1

Alpelisib + OSI-027 = compound: Cc1nc(NC(=O)N2CCC[C@H]2C(N)=O)sc1-c1ccnc(C(C)(C)C(F)(F)F)c1 [Alpelisib] + COc1cccc2cc(-c3nc([C@H]4CC[C@H](C(=O)O)CC4)n4ncnc(N)c34)[nH]c12 [OSI-027] (partner 0.5 µM)
Summary of the method: as §1

Row | Cell Line | relative viability (Alpelisib + Phenformin; first compound 0.04 µM) | relative viability (Alpelisib + Phenformin; first compound 0.1265 µM) | relative viability (Alpelisib + Phenformin; first compound 0.4 µM) | relative viability (Alpelisib + Phenformin; first compound 1.265 µM) | relative viability (Alpelisib + Phenformin; first compound 4 µM) | relative viability (OSI-027 + Linsitinib; first compound 0.01 µM) | relative viability (OSI-027 + Linsitinib; first compound 0.03162 µM) | relative viability (OSI-027 + Linsitinib; first compound 0.1 µM) | relative viability (OSI-027 + Linsitinib; first compound 0.3162 µM) | relative viability (OSI-027 + Linsitinib; first compound 1 µM) | relative viability (Vemurafenib + Linsitinib; first compound 0.03162 µM) | relative viability (Vemurafenib + Linsitinib; first compound 0.1 µM) | relative viability (Vemurafenib + Linsitinib; first compound 1 µM) | relative viability (Alpelisib + OSI-027; first compound 0.04 µM) | relative viability (Alpelisib + OSI-027; first compound 0.1265 µM) | relative viability (Alpelisib + OSI-027; first compound 0.4 µM) | relative viability (Alpelisib + OSI-027; first compound 1.265 µM) | relative viability (Alpelisib + OSI-027; first compound 4 µM) | relative viability (Vemurafenib + Linsitinib; first compound 0.3162 µM)
1 | HCC-366 | 0.639 | 0.608 | 0.636 | 0.428 | 0.139 | 0.632 | 0.713 | 0.64 | 0.445 | 0.0575 | 0.637 | 0.603 | 0.601 | 0.867 | 0.877 | 0.762 | 0.473 | 0.355 | –
2 | HCC-827 | 0.424 | 0.419 | 0.338 | 0.371 | 0.303 | 0.979 | 1.03 | 0.935 | 0.943 | 0.552 | 0.878 | – | 0.926 | 0.808 | 0.803 | 0.689 | 0.57 | 0.384 | 0.924
3 | HOP-62 | 0.642 | 0.611 | 0.761 | 0.561 | 0.633 | 0.952 | 1.2 | 1.04 | 0.712 | 0.359 | 0.78 | 1.01 | 0.841 | 0.822 | 0.793 | 0.949 | 0.626 | 0.589 | 0.94
4 | IA-LM | – | – | – | – | – | 0.31 | 0.383 | 0.41 | 0.263 | 0.131 | 0.537 | 0.53 | 0.554 | – | – | – | – | – | 0.603
5 | LC-2-ad | 0.603 | 0.549 | 0.586 | 0.338 | 0.427 | 0.847 | 0.751 | 0.803 | 0.694 | 0.291 | 0.801 | 0.755 | 0.749 | 0.783 | 0.692 | 0.712 | 0.478 | 0.416 | 0.873
6 | LCLC-97TM1 | 0.493 | 0.439 | 0.385 | 0.248 | 0.19 | 0.19 | 0.182 | 0.139 | 0.117 | 0.123 | 0.181 | 0.212 | 0.157 | 0.434 | 0.391 | 0.243 | 0.181 | 0.1 | 0.175
7 | LCLC-103H | 0.344 | 0.347 | 0.311 | 0.245 | 0.272 | 0.994 | 0.968 | 1.07 | 0.906 | 1.05 | 1.09 | 1.04 | 1.18 | 0.486 | 0.439 | 0.435 | 0.372 | 0.335 | 1.06
8 | LK-2 | 0.4 | 0.233 | 0.213 | 0.226 | 0.161 | 0.523 | 0.184 | 0.396 | 0.289 | 0.138 | 0.409 | 0.525 | 0.417 | 0.215 | 0.208 | 0.16 | 0.142 | 0.158 | 0.811
9 | LOU-NH91 | 0.668 | 0.58 | 0.648 | 0.525 | 0.472 | 0.954 | 0.902 | 0.808 | 0.69 | 0.521 | 0.864 | 0.535 | 1.01 | 0.754 | 0.601 | 0.638 | 0.543 | 0.49 | –
10 | LU99A | 0.883 | 0.843 | 0.856 | 0.709 | 0.657 | 0.51 | 0.471 | 0.355 | 0.243 | 0.198 | 0.484 | 0.445 | 0.479 | 0.306 | 0.3 | 0.296 | 0.234 | 0.224 | 0.586
11 | LXF-289 | 0.482 | 0.527 | 0.513 | 0.481 | 0.482 | 0.995 | 1.06 | 0.972 | 0.956 | 0.445 | 0.877 | 0.919 | 1.04 | 0.725 | 0.626 | 0.685 | 0.567 | 0.427 | 0.992
12 | NCI-H23 | 0.779 | 0.702 | 0.783 | 0.605 | 0.506 | 0.517 | 0.549 | 0.452 | 0.237 | 0.212 | 0.621 | 0.605 | 0.59 | 0.672 | 0.485 | 0.521 | 0.363 | 0.314 | 0.715
13 | NCI-H322M | 0.74 | 0.674 | 0.736 | 0.558 | 0.55 | 0.805 | 0.778 | 0.787 | 0.589 | 0.868 | 0.851 | – | 0.885 | 0.56 | 0.527 | 0.515 | 0.36 | 0.41 | 0.964
14 | NCI-H522 | 0.573 | 0.601 | 0.782 | 0.5 | 0.582 | – | – | – | – | – | – | – | – | 0.722 | 0.622 | 0.605 | 0.629 | 0.5 | –
15 | NCI-H1299 | – | – | – | – | – | 0.969 | 0.94 | 0.889 | 0.773 | 0.635 | 1.02 | 0.958 | 0.951 | – | – | – | – | – | 0.83
16 | NCI-H1623 | 0.548 | 0.545 | 0.516 | 0.532 | 0.426 | – | – | – | – | – | – | – | – | 0.494 | 0.338 | 0.383 | 0.34 | 0.28 | –
17 | NCI-H1648 | – | – | – | – | – | – | – | – | – | – | – | – | – | – | 0.229 | 0.244 | 0.282 | 0.228 | –
18 | NCI-H1650 | 0.405 | 0.408 | 0.43 | 0.362 | 0.308 | – | – | – | – | – | – | – | – | 0.637 | 0.561 | 0.529 | 0.433 | 0.374 | –
19 | NCI-H1703 | – | – | – | – | – | 0.381 | 0.788 | 0.767 | 0.48 | 0.56 | 0.738 | 0.644 | 0.787 | – | – | – | – | – | 0.637
20 | NCI-H2170 | 0.466 | 0.384 | 0.438 | 0.45 | 0.387 | – | – | – | – | – | – | – | – | 0.695 | 0.612 | 0.663 | 0.589 | 0.39 | –
21 | NCI-H2342 | 0.606 | 0.587 | 0.559 | 0.519 | 0.439 | – | – | – | – | – | – | – | – | 0.626 | 0.594 | 0.553 | 0.559 | 0.421 | –
22 | SW 900 | 0.561 | 0.525 | 0.449 | 0.474 | 0.347 | – | – | – | – | – | – | – | – | 0.527 | 0.524 | 0.742 | 0.568 | 0.45 | –
